The subject of data set [1] is SHP-77 cells. The following applies: for rescue of Tat-SP4-induced cell death by cell death program inhibitor: 10 μM Tat-SP4, 24 h, trypan blue exclusion; for rescue of Tat-SP4-induced cell death by cell death program inhibitor / rescue of Tat-SP4-induced cell death by uptake pathway inhibitor: n = 3. As to the method: (§1) Cell viability was measured by a trypan blue exclusion assay following the standard protocol provided by the manufacturer. SHP-77 cells and H146 cells were plated into 96-well plates at a density of 2 × 10^4 cells/well. Upon cell attachment, cells were treated with the graded concentrations of Tat-SP4 for 24 h. The IC50 value was calculated from the curve fitted to concentration–response data sets. All experiments were repeated in triplicate, and the mean was calculated. For the 5-day growth curve, cells were seeded into a 24-well plate at 2.5 × 10^4 cells/well for SHP-77 and H146 cells. Cells were treated with 10 μM Tat-SP4. Cells were allowed to grow for up to 5 days post-treatment, and the viable cell number was checked every 24 hours with the trypan blue exclusion assay. For cell death rescue assays, SHP-77 cells were first plated overnight in 96-well plates. Tat-SP4 was added to the cells, together with inhibitors for apoptosis, ferroptosis, necroptosis, or autosis. After 24 h treatment, the cell viability was measured by the trypan blue exclusion assay.
Figure 3 Cell death induced by Tat-SP4 is rescued by an inhibitor of autosis but not by inhibitors for other cell death programs. (A) Flow cytometry analysis using Annexin V FITC-PI staining was conducted on SHP-77 cells after indicated hours of treatment with the Tat-SP4. […] (B) In the absence or presence of Z-VAD-FMK, SHP-77 cells treated with Tat-SP4 or cisplatin for 24 h. (C) SHP-77 cells were pretreated with ferroptosis inhibitor, ferrostatin-1, followed by 10 μM Tat-SP4 or 5 μM Erastin treatment for 24 h. […] (D) SHP-77 cells were treated with Tat-SP4 at 10 μM for 24 h, either in the presence or absence of necrostatin-1, respectively. […] (E) SHP-77 cells were pretreated with digoxin for 2 h, followed by the treatment of Tat-SP4 for 12 h. Cell viability was measured by trypan blue exclusion assay. Data are presented as mean ± SEM (n = 3). ** p < 0.01, **** p < 0.0001; unpaired t-test. TEXT PRINTED IN THE PICTURE: (A) Tat-SP4: Q1-UL 15.9% (10μM; 3h); Dead 30.5% (10μM; 3h); Live 48.8% (10μM; 3h); Apoptotic 4.8% (10μM; 3h); Q1-UL 51.4% (10μM; 6h); Dead 4.7% (10μM; 6h); Live 43.6% (10μM; 6h); Apoptotic 0.2% (10μM; 6h) DOUBTS OF THE COPYIST ABOUT THIS PICTURE: Tat-SP4 3h, Q1-UL 15.9%: very small print, 5 and 9 uncertain / Tat-SP4 3h, Dead 30.5%: very small print, 3 and 5 uncertain / Tat-SP4 3h, Live 48.8%: very small print, partly overlaid by the plot edge, both 8s uncertain / Tat-SP4 3h, Apoptotic 4.8%: very small print, 8 uncertain / Tat-SP4 6h, Q1-UL 51.4%: very small print, 5 uncertain / Tat-SP4 6h, Dead 4.7%: very small print, digits uncertain / Tat-SP4 6h, Live 43.6%: very small print, 3 and 6 uncertain / Tat-SP4 6h, Apoptotic 0.2%: very small print, digits uncertain
Figure 5 The cellular uptake process of Tat-SP4 is energy- and macropinocytosis-dependent. (A) Representative flow cytometry plot of SHP-77 cells stained with Rhod-SP4 at 10 μM at 4 °C, room temperature, and 37 °C for an hour, respectively. The fluorescence intensity of Rhod-SP4 increases with increasing temperature. (B) Mean fluorescence intensity of Rhod-SP4 from (A). The bar graph represents a single experiment without replicates. (C) Representative flow cytometry plot of SHP-77 cells stained with Rhod-SP4 at 10 μM at 37 °C for an hour, in the presence or absence of various inhibitors. AM, Amiloride; MβCD, Methyl-beta cyclodextrin. Cells were pretreated with different inhibitors for 30 min, followed by staining with Rhod-SP4 at 10 μM. (D) Mean fluorescence intensity of Rhod-SP4 from (C). The bar graph represents a single experiment without replicates. (E–G) Assess the effect of different inhibitors of cell-penetrating peptides uptake pathways on Tat-SP4-induced cell death. […] Data are presented as mean ± SEM (n = 3). * p < 0.05; unpaired t-test.

The test system of the next data set is H146 cells. Kind of data set: Trypan blue exclusion cell viability assay, 24 h. To be noted: 24 h treatment, triplicate, mean, read-out: cytotoxicity IC50. It counts as cell-based. On the procedure: as §1
(§2) (A) Trypan blue exclusion assay to assess the cytotoxicity IC50 of Tat-SP4 in SHP-77 and H146 cell lines. Cells were treated with Tat-SP4 at a series of concentrations for 24 h. The number of viable cells was determined manually using a hemocytometer and the trypan blue dye exclusion method.

The test system of data set [2] is SHP-77 cells. The experiment in a line: Trypan blue exclusion cell viability assay, 24 h. It counts as cell-based. The following applies: 24 h treatment, triplicate, mean, read-out: cytotoxicity IC50. On the procedure:
as §1, §2

The nature of the next data set: in vitro. The following applies: human, Beas-2B cells (normal bronchial epithelial). On the procedure: as §1, §2
Another data set relates to SHP-77 xenograft. Kind of data set: SHP-77 xenograft model. It counts as in vivo. The following applies: male nude mice, 40 mg/kg/day i.p., heart, liver, spleen, lung, kidney, stomach. On the procedure:
Animal experiments were carried out according to the guidelines of the Centralized Animal Facilities of the Hong Kong Polytechnic University. Male nude mice, 5–6 weeks in age, were purchased from the Centralized Animal Facilities of the Hong Kong Polytechnic University. Exponentially growing SHP-77 cells were harvested and resuspended in PBS with a concentration of 1 ×10^8 cells per ml. Mixed cell suspensions with Matrigel (Corning) in a 1:1 volume ratio with 5 × 10^5 SHP-77 cells were injected subcutaneously into the right-lower back of the mice. The tumor volume was calculated by the equation of Length × Width × Width/2. Mice were divided randomly into two groups (8 animals/group) when the tumor volume reached 50–60 mm^3. Tat-SP4 was administered intraperitoneally at 40 mg/kg every day, while PBS was administered to mice in the control group. The tumor volume was measured every other day. Treatments were continued until the tumor volume in the mice in the control group reached the maximum volume allowable according to the Centralized Animal Facilities of the Hong Kong Polytechnic University. At the end of the experiment, mice were sacrificed, and both tumors and vital organs were harvested for analysis. Tumor weights were measured after resection. […]
Figure 7 The anti-proliferative efficacy of Tat-SP4 in the SHP-77 xenograft model. […] The tumor volume was recorded every other day. […]

The test system of data set [3] is SHP-77 cells. Kind of data set: Intracellular Ca2+ imaging with genetically encoded indicators. It counts as cell-based. The following applies: 10 µM digoxin pretreatment 1 h, then 10 µM Tat-SP4.
Description: Genetically encoded Ca^2+ indicators used in this study include mito-GCaMP5G, cyto-RCaMP1h, and G-CEPIA1er. SHP-77 cells were plated in 6-well plates to allow transfection. Cells were transfected with either mito-GCaMP5G, cyto-RCaMP1h, or G-CEPIA1er cDNA using Lipofectamine 2000 and incubated for 36 h. After transfection, cells were collected and evenly distributed into 24-well plates in HBSS buffer (Gibco) for imaging. Time-lapse fluorescence imaging was performed using an Olympus inverted epifluorescence microscope equipped with a ×20 objective and appropriate excitation/emission filter sets. Images were acquired every 3 s.
To monitor subcellular Ca^2+ dynamics, SHP-77 cells expressing mito-GCaMP5G, cyto-RCaMP1h, or G-CEPIA1er were imaged to capture Ca^2+ fluctuations in the mitochondria, cytosol, and endoplasmic reticulum, respectively. Tat-SP4 or other agonists were applied 60 s after the start of imaging. Fluorescence signals were quantified as ΔF/F0, where ΔF represents the change in fluorescence at each time point and F0 denotes the baseline fluorescence.
(A,B) SHP-77 cells were transfected with cyto-RCaMP1h (A) or mito-GCaAMP5G (B) for 36 h. […] SHP-77 cells were pretreated with 10µM digoxin for 1 h, followed by the stimulation of Tat-SP4.
For data set [4], the system named is SHP-77 cells. The experiment in a line: Seahorse XF Mito Stress Test, oxygen consumption rate. Type of data set: cell-based. The following applies: digoxin pretreatment followed by Tat-SP4. As to the method:
Oxygen consumption in intact cells was assessed using an XFe24 Extracellular Flux Analyzer (Agilent, Santa Clara, CA, USA) following the manufacturer’s standard protocol. Briefly, one day prior to the experiment, an XF24 cell culture microplate was coated with 100 µg/mL poly-lysine and incubated in a CO2 incubator at 37 °C. On the same day, 1 mL of XF calibrant was added to each well of the utility plate to hydrate the sensor, and the XF24 sensor cartridge was incubated overnight in a non-CO2 incubator at 37 °C. On the day of the experiment, the coated XF24 cell culture microplate was washed with PBS and then allowed to air dry. Then, SHP-77 cells were seeded at a density of 1.5 × 10^5 cells per well in the coated XF24 cell culture microplate with the XF assay medium containing 1 mM sodium pyruvate, 2 mM glutamine, and 10 mM glucose and incubated for 1 h in a non-CO2 incubator at 37 °C.
Figure 4 Tat-SP4 impairs mitochondrial function and OXPHOS activity. […] Cells were stained with TMRM for 30 min and analyzed using flow cytometry. […] Fluorescence intensity is directly proportional to the amount of ROS in the cell. (C) OCR was measured using the Mito Stress Test with Agilent Seahorse Analyzer. […] (D) Quantification of basal maximum respiration changes respiration after Tat-SP4 treatment and in (A). **** p < 0.0001. […]

Positions of bridges follow the written chain, without caps; N, C: chain ends. Non-standard residues stand in square brackets, D forms with d. Residues, ends and D or L forms follow the SMILES beside them. *: point of attachment. R8 = C=CCCCCCC[C@@](C)(N)C(=O)O; S5 = C=CCCC[C@](C)(N)C(=O)O; Cbz = O=C(OCc1ccccc1)*; CH2F = FC*

A word on the IC50: it is the concentration that gives 50% inhibition.

For the compound `CCOC(=O)c1ccc(NC2CCCCC2)c(N)c1` [Ferrostatin-1], the “rescue of Tat-SP4-induced cell death by cell death program inhibitor” value (“rescue … by cell death program inhibitor” for short) in the data set on SHP-77 cells [1] was “did not rescue”.

As for `CN1C(=O)C(Cc2c[nH]c3ccccc23)NC1=S` (stereo not shown) [Necrostatin-1], in the data set with SHP-77 cells [1], the “rescue … by cell death program inhibitor” value is given as “did not rescue”.

Take `CC(=O)N[C@@H](Cc1ccc(O)cc1)C(=O)NCC(=O)N[C@@H](CCCNC(=N)N)C(=O)N[C@@H](CCCCN)C(=O)N[C@@H](CCCCN)C(=O)N[C@@H](CCCNC(=N)N)C(=O)N[C@@H](CCCNC(=N)N)C(=O)N[C@@H](CCC(N)=O)C(=O)N[C@@H](CCCNC(=N)N)C(=O)N[C@@H](CCCNC(=N)N)C(=O)N[C@@H](CCCNC(=N)N)C(=O)N[C@@H](CCCNC(=N)N)C(=O)N[C@@H](CC(C)C)C(=O)N[C@@H](CO)C(=O)N[C@@H](CCC(=O)O)C(=O)N[C@@H](CC(C)C)C(=O)N[C@]1(C)CCCCCCC=CCCC[C@@](C)(C(=O)N[C@@H](C)C(N)=O)NC(=O)[C@H](CCCNC(=N)N)NC(=O)[C@H](CCC(N)=O)NC(=O)[C@H](CCCCN)NC(=O)[C@H](CCC(=O)O)NC(=O)[C@H](CCCNC(=N)N)NC(=O)[C@H](CC(=O)O)NC1=O` [Tat-SP4] (Ac-YGRKKRRQRRRRLSEL[R8]DREKQR[S5]A-NH2; staple 17-24): the IC50 turned out to be 17.6 µM in the data set with H146 cells and 7.66 µM in the data set with SHP-77 cells [2]. Further, it took 94.9 µM to reach half-maximal inhibition in the data set “in vitro” (IC50 at 24 h). Further, the “body weight and gross morphology of major organs” value in the data set with SHP-77 xenograft was “no abnormal changes”.

For the compound `COC(=O)C[C@H](NC(=O)[C@H](C)NC(=O)[C@@H](NC(=O)OCc1ccccc1)C(C)C)C(=O)CF` [Z-VAD-FMK] (Cbz-Val-Ala-Asp(OMe)-CH2F), the “rescue … by cell death program inhibitor” value in the data set on SHP-77 cells [1] is “had no effect”. Further, the “rescue of cisplatin-induced apoptotic cell death” value with SHP-77 cells [1] (cisplatin 24 h) was “rescued”.

For the compound `N=C(N)NC(=O)c1nc(Cl)c(N)nc1N` [amiloride, Amiloride], the “rescue of Tat-SP4-induced cell death by uptake pathway inhibitor” value (“rescue … by uptake pathway inhibitor” for short) in the data set with SHP-77 cells [1] is “readily rescued cell death”.

As to `C[C@H]1O[C@@H](O[C@H]2[C@@H](O)C[C@H](O[C@H]3[C@@H](O)C[C@H](O[C@H]4CC[C@@]5(C)[C@H](CC[C@@H]6[C@@H]5C[C@@H](O)[C@]5(C)[C@@H](C7=CC(=O)OC7)CC[C@]65O)C4)O[C@@H]3C)O[C@@H]2C)C[C@H](O)[C@@H]1O` [digoxin, Digoxin], the “effect on Ca2+ influx triggered by Tat-SP4 (cyto-RCaMP and mito-GCaMP5G)” value in the data set with SHP-77 cells [3] is reported as “completely abolished”. The “basal and maximum OCR levels after Tat-SP4 with digoxin pretreatment” value in the data set on SHP-77 cells [4] was “comparable to those for untreated controls”.

Take Heparin: in the data set on SHP-77 cells [1], the “rescue … by uptake pathway inhibitor” value is given as “readily rescued cell death”.

With Methyl-beta-cyclodextrin [MβCD], in the data set with SHP-77 cells [1], the “rescue … by uptake pathway inhibitor” value is reported as “showed no such effect”.

Source of the values: article PMC12736451, “Autophagy-Targeting Stapled Peptide Utilizes Macropinocytosis for Cell Entry to Potentiate Anti-Proliferative Autosis in Small-Cell Lung Cancer” (Pharmaceutics, 2025).
